# According to BindingDB's records for doi:10.1016/j.bmcl.2003.09.092 (Virginia Commonwealth University, 2003):
# pKi: −log10 of the molar value.
# Assay: Binding affinity for rat imidazoline receptor I-1 from crude P2 membranes
structure (smiles),measurement,value
"C(=C\c1ccccc1)/C1=NCCN1 [2-((E)-Styryl)-4,5-dihydro-1H-imidazole]",pKi,8.00
